Assay results published in PMC12432378 (Cell Reports Medicine, 2025).
Positions of bridges follow the written chain, without caps; N, C: chain ends. Non-standard residues stand in square brackets, D forms with d. Residues, ends and D or L forms follow the SMILES beside them. S5 = C=CCCC[C@](C)(N)C(=O)O

Tests used:
authentic MjHKU4r-CoV-1 [1] = conditions: 72 h
MjHKU4r-CoV-1 PsV = conditions: for IC50: 48 h
MERS-CoV PsV = conditions: 48 h
MjHKU4r-S = assay type: cell-based, MjHKU4r-CoV-1; conditions: for IC50: read-out: IC50 against MjHKU4r-S-mediated cell-cell fusion
[2] = test system: pseudotyped SARS-CoV-2 (KP.2); conditions: pseudotyped (KP.2, 48 h)
[3] = test system: pseudotyped SARS-CoV-2 (Delta); conditions: pseudotyped (Delta, 48 h)
HCoV-OC43 = test system: HCoV-OC43; set-up: species or system newborn ICR mice; conditions: mouse, in vivo
authentic MjHKU4r-CoV-1 [4] = assay type: cell-based

Compound | IC50 (authentic MjHKU4r-CoV-1 [1]) [nM] | IC50 (MjHKU4r-CoV-1 PsV) [nM] | IC50 (MERS-CoV PsV) [nM] | IC50 (authentic HCoV-OC43) [nM] | IC50 (MjHKU4r-S) [nM] | IC50 [2] [nM] | Improvement in inhibition of pseudotyped MjHKU4r-CoV-1 infection compared to original MjHKU4r-HR2P (MjHKU4r-CoV-1 PsV) [fold] | IC50 [3] [nM] | Survival rate (HCoV-OC43) [%] | Inhibition of MjHKU4r-S-mediated cell-cell fusion at fixed concentration (MjHKU4r-S) | Blockage of MjHKU4r-CoV-1 N protein expression (immunofluorescence) (authentic MjHKU4r-CoV-1 [4])
CSCC[C@H](NC(=O)[C@H](C)NC(=O)CNC(=O)[C@H](CC(C)C)NC(=O)[C@H](C)NC(=O)[C@H](CCC(N)=O)NC(=O)[C@H](CC(N)=O)NC(=O)[C@H](Cc1ccccc1)NC(=O)[C@H](CCCCN)NC(=O)[C@H](CC(N)=O)NC(=O)[C@H](C)NC(C)=O)C(=O)N[C@@H](CCC(N)=O)C(=O)N[C@H](C(=O)NCC(=O)N[C@@H](Cc1ccccc1)C(=O)N[C@H](C(=O)N[C@H](C(=O)N[C@@H](CO)C(=O)N[C@@H](CC(N)=O)C(=O)N[C@@H](CC(C)C)C(=O)N[C@@H](C)C(=O)N[C@@H](Cc1ccccc1)C(=O)N[C@@H](CO)C(=O)N[C@@H](CCCCN)C(=O)N[C@H](C(=O)N[C@@H](CCC(N)=O)C(=O)N[C@@H](CC(=O)O)C(=O)N[C@@H](C)C(=O)N[C@H](C(=O)N[C@@H](CC(N)=O)C(=O)N[C@@H](C)C(=O)N[C@@H](CC(N)=O)C(=O)N[C@@H](C)C(=O)N[C@@H](CC(N)=O)C(=O)N[C@@H](C)C(=O)N[C@@H](CC(C)C)C(=O)N[C@@H](CO)C(=O)N[C@@H](CCCCN)C(=O)N[C@@H](CC(C)C)C(=O)N[C@@H](C)C(=O)N[C@@H](CO)C(=O)N[C@@H](CCC(=O)O)C(N)=O)C(C)C)C(C)C)[C@@H](C)O)[C@@H](C)O)[C@@H](C)O [MjHKU4r-HR1P] | > 5000 | > 10000 |  |  |  |  |  |  |  |  | 
CC[C@H](C)[C@H](NC(=O)[C@H](C)NC(=O)[C@H](CCSC)NC(=O)[C@H](CCC(=O)O)NC(=O)[C@H](CC(=O)O)NC(=O)[C@H](CO)NC(=O)[C@H](CC(C)C)NC(=O)[C@H](CC(=O)O)NC(=O)[C@H](CC(C)C)NC(=O)[C@H](CC(C)C)NC(=O)[C@@H](NC(=O)[C@@H](NC(=O)[C@H](CC(N)=O)NC(=O)[C@@H](NC(=O)[C@H](CCCCN)NC(=O)[C@H](CO)NC(=O)[C@@H](NC(=O)[C@H](CCC(=O)O)NC(C)=O)[C@@H](C)CC)[C@@H](C)CC)C(C)C)[C@@H](C)O)C(=O)N[C@@H](CC(C)C)C(=O)N[C@@H](CC(C)C)C(=O)N[C@@H](CCC(=O)O)C(=O)N[C@@H](C)C(=O)N[C@H](C(=O)N[C@@H](CCCCN)C(=O)N[C@@H](CCC(N)=O)C(=O)N[C@@H](CC(C)C)C(=O)N[C@@H](CC(N)=O)C(=O)N[C@@H](CC(=O)O)C(=O)N[C@@H](CO)C(=O)N[C@@H](Cc1ccc(O)cc1)C(=O)N[C@H](C(=O)N[C@@H](CC(=O)O)C(=O)N[C@@H](CC(C)C)C(=O)N[C@@H](CCCCN)C(=O)N[C@@H](CCC(=O)O)C(=O)N[C@@H](CC(C)C)C(N)=O)[C@@H](C)CC)[C@@H](C)CC [MjHKU4r-HR2P9] |  | 26 | 114 | 1020 | 10.3 | 460 | 2.9 | 408 |  |  | 
CC[C@H](C)[C@H](NC(=O)[C@H](C)NC(=O)[C@H](CCSC)NC(=O)[C@H](CCC(=O)O)NC(=O)[C@H](CC(=O)O)NC(=O)[C@H](CO)NC(=O)[C@H](CC(C)C)NC(=O)[C@H](CC(=O)O)NC(=O)[C@H](CC(C)C)NC(=O)[C@H](CC(C)C)NC(=O)[C@@H](NC(=O)[C@@H](NC(=O)[C@H](CC(N)=O)NC(=O)[C@@H](NC(=O)[C@H](CCCCN)NC(=O)[C@H](CO)NC(=O)[C@@H](NC(=O)[C@H](CCC(=O)O)NC(C)=O)[C@@H](C)CC)[C@@H](C)CC)C(C)C)[C@@H](C)O)C(=O)N[C@@H](CC(C)C)C(=O)N[C@@H](CC(C)C)C(=O)N[C@@]1(C)CCCC=CCCC[C@@](C)(C(=O)N[C@@H](CC(C)C)C(=O)N[C@@H](CC(N)=O)C(=O)N[C@@H](CC(=O)O)C(=O)N[C@@H](CO)C(=O)N[C@@H](Cc2ccc(O)cc2)C(=O)N[C@H](C(=O)N[C@@H](CC(=O)O)C(=O)N[C@@H](CC(C)C)C(=O)N[C@@H](CCCCN)C(=O)N[C@@H](CCC(=O)O)C(=O)N[C@@H](CC(C)C)C(N)=O)[C@@H](C)CC)NC(=O)[C@H](CCCCN)NC(=O)[C@H]([C@@H](C)CC)NC(=O)[C@H](C)NC1=O [MjHKU4r-HR2P10] (Ac-EISKINVTLLDLSDEMAILL[S5]AIK[S5]LNDSYIDLKEL-NH2; staple 21-25) |  |  | 37.2 | 480 |  | 85.9 |  | 115 | 66.7 |  | 
CC[C@H](C)[C@H](NC(=O)[C@H](C)NC(=O)[C@H](CCSC)NC(=O)[C@H](CCC(=O)O)NC(=O)[C@H](CC(=O)O)NC(=O)[C@H](CO)NC(=O)[C@H](CC(C)C)NC(=O)[C@H](CC(=O)O)NC(=O)[C@H](CC(C)C)NC(=O)[C@H](CC(C)C)NC(=O)[C@@H](NC(=O)[C@@H](NC(=O)[C@H](CC(N)=O)NC(=O)[C@@H](NC(=O)[C@H](CCCCN)NC(=O)[C@H](CO)NC(=O)[C@@H](NC(=O)[C@H](CCC(=O)O)NC(C)=O)[C@@H](C)CC)[C@@H](C)CC)[C@@H](C)O)[C@@H](C)O)C(=O)N[C@@H](CC(C)C)C(=O)N[C@@H](CCC(N)=O)C(=O)N[C@@H](CCC(=O)O)C(=O)N[C@H](C(=O)N[C@H](C(=O)N[C@@H](CCCCN)C(=O)N[C@@H](CCC(N)=O)C(=O)N[C@@H](CC(C)C)C(=O)N[C@@H](CC(N)=O)C(=O)N[C@@H](CC(=O)O)C(=O)N[C@@H](CO)C(=O)N[C@@H](Cc1ccc(O)cc1)C(=O)N[C@H](C(=O)N[C@@H](CC(=O)O)C(=O)N[C@@H](CC(C)C)C(=O)N[C@@H](CCCCN)C(=O)N[C@@H](CCC(=O)O)C(=O)N[C@@H](CC(C)C)C(N)=O)[C@@H](C)CC)C(C)C)C(C)C [MjHKU4r-HR2P] | 26 | 62 |  |  | 37 |  |  |  |  | completely inhibited | near-complete blockage
